Measurements reported in PubChem BioAssay (NCI).
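Interpolation was linear, between the two tested concentrations surrounding the appropriate level; five concentrations were tested over 48 hours in 96-well plates. At the GI50, growth is halved. TGI: concentration producing complete growth inhibition.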

Assays:
Assay in all cases: growth of human tumour cells (NCI), 48 h
786-0 renal = test system: 786-0 renal
A498 renal = test system: A498 renal
A549 NSCLC = test system: A549 NSCLC
ACHN renal = test system: ACHN renal
BT-549 breast = test system: BT-549 breast
CCRF-CEM leukemia = test system: CCRF-CEM leukemia
COLO 205 colon = test system: COLO 205 colon
DU-145 prostate = test system: DU-145 prostate
EKVX NSCLC = test system: EKVX NSCLC
HCC-2998 colon = test system: HCC-2998 colon
HCT-116 colon = test system: HCT-116 colon
HCT-15 colon = test system: HCT-15 colon
HL-60(TB) leukemia = test system: HL-60(TB) leukemia
HOP-62 NSCLC = test system: HOP-62 NSCLC
HOP-92 NSCLC = test system: HOP-92 NSCLC
HS 578T breast = test system: HS 578T breast
HT29 colon = test system: HT29 colon
IGROV1 ovarian = test system: IGROV1 ovarian
K-562 leukemia = test system: K-562 leukemia
KM12 colon = test system: KM12 colon
LOX IMVI melanoma = test system: LOX IMVI melanoma
M14 melanoma = test system: M14 melanoma
MALME-3M melanoma = test system: MALME-3M melanoma
MCF7 breast = test system: MCF7 breast
MDA-MB-231 breast = test system: MDA-MB-231 breast
MDA-MB-435 = test system: MDA-MB-435
MOLT-4 leukemia = test system: MOLT-4 leukemia
NCI-H226 lung = test system: NCI-H226 lung
NCI-H23 lung = test system: NCI-H23 lung
NCI-H460 lung = test system: NCI-H460 lung
NCI-H522 lung = test system: NCI-H522 lung
NCI/ADR-RES ovarian = test system: NCI/ADR-RES ovarian
OVCAR-3 ovarian = test system: OVCAR-3 ovarian
OVCAR-4 ovarian = test system: OVCAR-4 ovarian
OVCAR-5 ovarian = test system: OVCAR-5 ovarian
OVCAR-8 ovarian = test system: OVCAR-8 ovarian
PC-3 prostate = test system: PC-3 prostate
RPMI-8226 leukemia = test system: RPMI-8226 leukemia
RXF 393 renal = test system: RXF 393 renal
SF-268 CNS = test system: SF-268 CNS
SF-295 CNS = test system: SF-295 CNS
SF-539 CNS = test system: SF-539 CNS
SK-MEL-28 melanoma = test system: SK-MEL-28 melanoma
SK-MEL-5 melanoma = test system: SK-MEL-5 melanoma
SK-OV-3 ovarian = test system: SK-OV-3 ovarian
SN12C renal = test system: SN12C renal
SNB-19 CNS = test system: SNB-19 CNS
SNB-75 CNS = test system: SNB-75 CNS
SW-620 colon = test system: SW-620 colon
T-47D breast = test system: T-47D breast
TK-10 renal = test system: TK-10 renal
U251 CNS = test system: U251 CNS
UACC-257 melanoma = test system: UACC-257 melanoma
UACC-62 melanoma = test system: UACC-62 melanoma
UO-31 renal = test system: UO-31 renal
SK-MEL-2 melanoma = test system: SK-MEL-2 melanoma
SR leukemia = test system: SR leukemia

## NCCNc1c2c(c(NCCN)c3c(CO)c[nH]c13)C(=O)c1ccccc1C2=O
786-0 renal
  GI50: 5.21 µM
  TGI: > 100 µM
A498 renal
  GI50: 41.2 µM
  TGI: > 100 µM
A549 NSCLC
  GI50: > 100 µM
  TGI: > 100 µM
ACHN renal
  GI50: 35.9 µM
  TGI: > 100 µM
BT-549 breast
  GI50: 6.72 µM
  TGI: 32 µM
CCRF-CEM leukemia
  GI50: 4.28 µM
  TGI: > 100 µM
COLO 205 colon
  GI50: 8.38 µM
  TGI: > 100 µM
DU-145 prostate
  GI50: 12 µM
  TGI: > 100 µM
EKVX NSCLC
  GI50: 19.7 µM
  TGI: 56.2 µM
HCC-2998 colon
  GI50: 7.14 µM
  TGI: 52.3 µM
HCT-116 colon
  GI50: 7.11 µM
  TGI: > 100 µM
HCT-15 colon
  GI50: > 100 µM
  TGI: > 100 µM
HL-60(TB) leukemia
  GI50: 43.4 µM
  TGI: > 100 µM
HOP-62 NSCLC
  GI50: 4.22 µM
  TGI: > 100 µM
HOP-92 NSCLC
  GI50: 24 µM
  TGI: > 100 µM
HS 578T breast
  GI50: 3.27 µM
  TGI: 38.9 µM
HT29 colon
  GI50: 10.6 µM
  TGI: > 100 µM
IGROV1 ovarian
  GI50: 15 µM
  TGI: > 100 µM
K-562 leukemia
  GI50: 9.54 µM
  TGI: > 100 µM
KM12 colon
  GI50: 17.3 µM
  TGI: > 100 µM
LOX IMVI melanoma
  GI50: 8.32 µM
  TGI: > 100 µM
M14 melanoma
  GI50: 25.3 µM
  TGI: > 100 µM
MALME-3M melanoma
  GI50: 8.51 µM
  TGI: 26.3 µM
MCF7 breast
  GI50: 5.59 µM
  TGI: 82 µM
MDA-MB-231 breast
  GI50: 15.5 µM
  TGI: 51.4 µM
MDA-MB-435
  GI50: 28.7 µM
  TGI: > 100 µM
MOLT-4 leukemia
  GI50: 3.93 µM
  TGI: > 100 µM
NCI-H226 lung
  GI50: 17.9 µM
  TGI: 91.6 µM
NCI-H23 lung
  GI50: 17.2 µM
  TGI: > 100 µM
NCI-H460 lung
  GI50: 25.7 µM
  TGI: > 100 µM
NCI-H522 lung
  GI50: 8.13 µM
  TGI: > 100 µM
NCI/ADR-RES ovarian
  GI50: > 100 µM
  TGI: > 100 µM
OVCAR-3 ovarian
  GI50: 1.14 µM
  TGI: 30.7 µM
OVCAR-4 ovarian
  GI50: 38.3 µM
  TGI: > 100 µM
OVCAR-5 ovarian
  GI50: 48.7 µM
  TGI: > 100 µM
OVCAR-8 ovarian
  GI50: 5.26 µM
  TGI: 47.2 µM
PC-3 prostate
  GI50: 20.1 µM
  TGI: > 100 µM
RPMI-8226 leukemia
  GI50: 31.3 µM
  TGI: > 100 µM
RXF 393 renal
  GI50: 5.84 µM
  TGI: 34.7 µM
SF-268 CNS
  GI50: 0.795 µM
  TGI: 6.42 µM
SF-295 CNS
  GI50: 6.16 µM
  TGI: 43.8 µM
SF-539 CNS
  GI50: 3.89 µM
  TGI: 39.3 µM
SK-MEL-28 melanoma
  GI50: 24.5 µM
  TGI: > 100 µM
SK-MEL-5 melanoma
  GI50: 19.9 µM
  TGI: 69.3 µM
SK-OV-3 ovarian
  GI50: 5.96 µM
  TGI: > 100 µM
SN12C renal
  GI50: 1.59 µM
  TGI: 12.8 µM
SNB-19 CNS
  GI50: 3.34 µM
  TGI: > 100 µM
SNB-75 CNS
  GI50: 24.3 µM
  TGI: > 100 µM
SW-620 colon
  GI50: 8.7 µM
  TGI: > 100 µM
T-47D breast
  GI50: 7.59 µM
  TGI: > 100 µM
TK-10 renal
  GI50: 20.7 µM
  TGI: 75.1 µM
U251 CNS
  GI50: 2.53 µM
  TGI: > 100 µM
UACC-257 melanoma
  GI50: 16.8 µM
  TGI: 46 µM
UACC-62 melanoma
  GI50: 15.2 µM
  TGI: > 100 µM
UO-31 renal
  GI50: 80.8 µM
  TGI: > 100 µM

## Fc1ccc2[nH]cc(-c3nc(-c4c[nH]c5ncccc45)cs3)c2c1
A498 renal
  GI50: 2.07 µM
  TGI: > 100 µM
A549 NSCLC
  GI50: 2.65 µM
  TGI: > 100 µM
COLO 205 colon
  GI50: 1.7 µM
  TGI: > 100 µM
EKVX NSCLC
  GI50: 3.34 µM
  TGI: > 100 µM
HCC-2998 colon
  GI50: > 100 µM
  TGI: > 100 µM
HS 578T breast
  GI50: 3.15 µM
  TGI: > 100 µM
IGROV1 ovarian
  GI50: 4.46 µM
  TGI: > 100 µM
K-562 leukemia
  GI50: 5.03 µM
  TGI: > 100 µM
KM12 colon
  GI50: 4.65 µM
  TGI: > 100 µM
MCF7 breast
  GI50: 3.04 µM
  TGI: > 100 µM
MDA-MB-435
  GI50: 12.5 µM
  TGI: > 100 µM
NCI-H460 lung
  GI50: 2.11 µM
  TGI: > 100 µM
OVCAR-5 ovarian
  GI50: > 100 µM
  TGI: > 100 µM
RXF 393 renal
  GI50: > 100 µM
  TGI: > 100 µM
SK-MEL-2 melanoma
  GI50: > 100 µM
  TGI: > 100 µM
SK-MEL-28 melanoma
  GI50: > 100 µM
  TGI: > 100 µM
SNB-75 CNS
  GI50: 1.58 µM
  TGI: > 100 µM
SR leukemia
  GI50: 2.79 µM
  TGI: > 100 µM
SW-620 colon
  GI50: > 100 µM
  TGI: > 100 µM
TK-10 renal
  GI50: > 100 µM
  TGI: > 100 µM
UACC-257 melanoma
  GI50: > 100 µM
  TGI: > 100 µM
UACC-62 melanoma
  GI50: > 100 µM
  TGI: > 100 µM
UO-31 renal
  GI50: 0.478 µM
  TGI: > 100 µM
